In patent publication US8962641B2, “Pyrimidine-substituted pyrrolidine derivatives, pharmaceutical compositions and uses thereof” (Boehringer Ingelheim International GmbH, priority 2013, dated 2015):

biological target: human ACC2 (Homo sapiens (Human), UniProt O00763); test: ACC2 assay (spectrophotometric 384 well assay, NADH-linked kinetic method); assay type: biochemical; conditions: hACC2 construct lacking 128 N-terminal amino acids; coupled lactate dehydrogenase/pyruvate kinase reaction, 340 nm, 25° C.
Sequence (O00763 129-2458): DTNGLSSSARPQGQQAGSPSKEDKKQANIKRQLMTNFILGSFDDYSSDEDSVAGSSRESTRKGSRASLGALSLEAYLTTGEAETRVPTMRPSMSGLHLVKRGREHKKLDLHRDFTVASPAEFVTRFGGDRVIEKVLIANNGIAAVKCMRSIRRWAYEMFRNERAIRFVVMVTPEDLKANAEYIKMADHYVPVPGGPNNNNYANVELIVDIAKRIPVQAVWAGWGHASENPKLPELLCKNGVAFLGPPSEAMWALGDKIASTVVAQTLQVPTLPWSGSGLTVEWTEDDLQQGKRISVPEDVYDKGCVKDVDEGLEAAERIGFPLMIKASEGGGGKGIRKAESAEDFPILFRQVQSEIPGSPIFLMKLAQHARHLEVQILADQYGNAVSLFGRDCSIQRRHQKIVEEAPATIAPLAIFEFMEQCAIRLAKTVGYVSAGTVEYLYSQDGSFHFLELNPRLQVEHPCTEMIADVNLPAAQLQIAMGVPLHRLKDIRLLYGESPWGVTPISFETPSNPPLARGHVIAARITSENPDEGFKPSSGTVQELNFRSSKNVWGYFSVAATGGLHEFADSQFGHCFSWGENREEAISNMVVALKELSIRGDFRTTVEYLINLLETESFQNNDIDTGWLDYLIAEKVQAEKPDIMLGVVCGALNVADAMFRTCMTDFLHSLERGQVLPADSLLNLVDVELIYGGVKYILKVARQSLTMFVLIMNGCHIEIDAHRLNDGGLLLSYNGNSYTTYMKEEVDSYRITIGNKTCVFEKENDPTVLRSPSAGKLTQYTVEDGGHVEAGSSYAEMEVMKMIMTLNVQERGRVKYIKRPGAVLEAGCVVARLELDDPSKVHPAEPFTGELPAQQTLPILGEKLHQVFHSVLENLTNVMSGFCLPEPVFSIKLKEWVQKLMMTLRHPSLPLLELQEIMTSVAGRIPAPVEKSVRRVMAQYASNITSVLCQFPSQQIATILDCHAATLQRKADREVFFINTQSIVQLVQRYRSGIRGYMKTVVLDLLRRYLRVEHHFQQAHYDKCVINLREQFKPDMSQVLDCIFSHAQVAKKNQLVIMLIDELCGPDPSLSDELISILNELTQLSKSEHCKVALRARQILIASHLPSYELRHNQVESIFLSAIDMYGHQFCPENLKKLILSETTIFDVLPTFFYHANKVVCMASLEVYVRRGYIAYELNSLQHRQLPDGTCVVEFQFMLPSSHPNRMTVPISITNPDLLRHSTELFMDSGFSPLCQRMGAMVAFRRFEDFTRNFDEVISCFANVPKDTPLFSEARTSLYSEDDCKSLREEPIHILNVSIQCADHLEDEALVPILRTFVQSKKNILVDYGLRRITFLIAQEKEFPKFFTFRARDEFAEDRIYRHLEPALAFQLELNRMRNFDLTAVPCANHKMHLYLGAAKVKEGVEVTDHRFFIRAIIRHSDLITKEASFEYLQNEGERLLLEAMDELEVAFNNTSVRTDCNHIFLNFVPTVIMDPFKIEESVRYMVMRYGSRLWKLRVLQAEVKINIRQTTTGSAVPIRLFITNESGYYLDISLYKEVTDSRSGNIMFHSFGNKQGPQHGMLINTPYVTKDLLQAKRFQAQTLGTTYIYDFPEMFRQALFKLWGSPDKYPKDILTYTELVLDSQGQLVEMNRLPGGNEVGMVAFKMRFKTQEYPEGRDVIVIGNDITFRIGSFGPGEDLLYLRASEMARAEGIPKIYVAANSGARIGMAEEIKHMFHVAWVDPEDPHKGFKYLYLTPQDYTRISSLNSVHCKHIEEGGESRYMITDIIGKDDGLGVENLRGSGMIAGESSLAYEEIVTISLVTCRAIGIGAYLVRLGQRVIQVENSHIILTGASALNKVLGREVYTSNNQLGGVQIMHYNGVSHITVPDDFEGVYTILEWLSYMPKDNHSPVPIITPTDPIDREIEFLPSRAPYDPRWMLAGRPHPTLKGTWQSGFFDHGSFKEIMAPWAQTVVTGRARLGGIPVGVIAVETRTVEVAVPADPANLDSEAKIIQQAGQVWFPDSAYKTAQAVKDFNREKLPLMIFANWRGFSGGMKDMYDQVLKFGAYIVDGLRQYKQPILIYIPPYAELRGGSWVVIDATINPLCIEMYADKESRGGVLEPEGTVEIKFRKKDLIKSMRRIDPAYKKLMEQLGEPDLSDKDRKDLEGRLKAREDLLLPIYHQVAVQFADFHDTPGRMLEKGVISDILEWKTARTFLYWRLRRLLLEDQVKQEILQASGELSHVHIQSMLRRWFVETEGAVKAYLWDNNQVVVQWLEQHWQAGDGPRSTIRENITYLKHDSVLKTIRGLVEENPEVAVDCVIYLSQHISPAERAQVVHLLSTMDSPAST
Experimental: Spectrophotometric 384 Well Assay
Malonyl CoA formation by acetyl CoA carboxylases is stoichometrically linked to the consumption of ATP. ACC2 activity is measured in a NADH-linked kinetic method measuring ADP generated during the ACC reaction using a coupled lactate dehydrogenase/pyruvate kinase reaction.
The protein is then expressed in insect cells using a baculoviral expression system. Protein purification is performed by anion exchange.
All compounds are dissolved in dimethyl sulfoxide (DMSO) to a concentration of 10 mM.
The enzymatic reaction is then started by addition of a mixture of NADH, acetyl Coenzyme A (both 200 μM f.c.) and ATP (500 uM f.c.). The decrease of the optical density (slope S) is then determined at 25° C. at a wavelength of 340 nm over 15 minutes in a spectrophotometric reader.
Each assay microtiter plate contains wells with vehicle instead of compound as controls for the non-inhibited enzyme (100% CTL; ‘HIGH’) and wells without acetyl-CoA as controls for non-specific NADH degradation (0% CTL; ‘LOW’).

IC50 | SMILES
103 nM | CC(=O)N[C@@H](C)c1ccc(O[C@@H]2CCN(c3nc(N(C)CC(C)C)ncc3Cl)C2)cc1 [Example 8.223]
960 nM | CC(=O)N[C@@H](C)c1ccc(O[C@@H]2CCN(c3ccnc(OCC(C)C)n3)C2)cc1 [Example 7.17]
103 nM | CC(=O)N[C@@H](C)c1ccc(O[C@@H]2CCN(c3nc(N4CCCC4C)ncc3Cl)C2)cc1 (stereo partly drawn) [Example 8.154]
56 nM | CC(=O)N[C@@H](C)c1ccc(O[C@@H]2CCN(c3nc(N(C)CCC(F)(F)F)ncc3F)C2)cc1 [Example 8.158]
59 nM | CCN(CC)c1ncc(Cl)c(N2CC[C@@H](Oc3ccc([C@H](C)NC(C)=O)cc3)C2)n1 [Example 8.60]
153 nM | CC(=O)N[C@@H](C)c1ccc(O[C@@H]2CCN(c3ncnc(OCC(F)F)c3F)C2)cc1 [Example 7.30]
163 nM | CC(=O)N[C@@H](C)c1ccc(O[C@@H]2CCN(c3ncc(OCC4CC4(F)F)cn3)C2)cc1 (stereo partly drawn) [Example 6.8]
476 nM | COC[C@H](C)N(C)c1ncnc(N2CC[C@@H](Oc3ccc([C@H](C)NC(C)=O)cc3)C2)c1F [Example 8.177]
172 nM | CC(=O)N[C@@H](C)c1ccc(O[C@@H]2CCN(c3ccnc(N4CCCC(F)(F)C4)n3)C2)cc1 [Example 8.208]
640 nM | CC(=O)N[C@@H](C)c1ccc(O[C@@H]2CCN(c3nc(N(C)CCOC(C)(C)C)ncc3Cl)C2)cc1 [Example 8.192]
175 nM | CC(=O)N[C@@H](C)c1ccc(O[C@@H]2CCN(c3ncnc(OCC4(C#N)CC4)c3F)C2)cc1 [Example 7.29]
104 nM | CCCN(C)c1ncnc(N2CC[C@@H](Oc3ccc([C@H](C)NC(C)=O)cc3)C2)c1F [Example 8.144]
88 nM | CCN(C)c1ncnc(N2CC[C@@H](Oc3ccc([C@H](C)NC(C)=O)cc3)C2)c1Cl [Example 8.102]
650 nM | CCC(=O)Nc1nc(C)c(C(=O)N[C@@H](C)c2ccc(O[C@@H]3CCN(c4ncnc(OCC(C)(C)O)c4F)C3)cc2)s1 [Example 7.65]
175 nM | CC(=O)N[C@@H](C)c1ccc(O[C@@H]2CCN(c3ccnc(N(C)CC(C)C)n3)C2)cc1 [Example 8.171]
354 nM | CC(=O)N[C@@H](C)c1ccc(O[C@@H]2CCN(c3ncnc(N4CC(C)C4)c3F)C2)cc1 [Example 8.200]
40 nM | CC(=O)N[C@@H](C)c1ccc(O[C@@H]2CCN(c3ncnc(N4CCC5(CC5)C4)c3Cl)C2)cc1 [Example 8.113]
128 nM | CC(=O)N[C@@H](C)c1ccc(O[C@@H]2CCN(c3nc(N4CCC(C)(C)C4)ncc3F)C2)cc1 [Example 8.194]
244 nM | CCN(C)c1ccnc(N2CC[C@@H](Oc3ccc([C@H](C)NC(C)=O)cc3)C2)n1 [Example 6.11]
52 nM | CC(=O)N[C@@H](C)c1ccc(O[C@@H]2CCN(c3ncnc(N4CC[C@H](C)C4)c3Cl)C2)cc1 [Example 8.310]
1100 nM | CC(=O)N[C@@H](C)c1ccc(O[C@@H]2CCN(c3ccnc(OCC4CC4)n3)C2)cc1 [Example 7.6]

IC50 | SMILES
824 nM | CCN(CC)c1ncc(C#N)c(N2CC[C@@H](Oc3ccc([C@H](C)NC(C)=O)cc3)C2)n1 [Example 8.35]
173 nM | COCCCN(C)c1ncc(Cl)c(N2CC[C@@H](Oc3ccc([C@H](C)NC(C)=O)cc3)C2)n1 [Example 8.168]
70 nM | C[C@H](NC(=O)c1cn[nH]c1)c1ccc(OC2CCN(c3ccnc(N(C)CC(F)F)n3)C2)cc1 (stereo partly drawn) [Example 2.15]
683 nM | CC(=O)N[C@@H](C)c1ccc(O[C@@H]2CCN(c3ncnc(N4CCOC(C)(C)C4)c3F)C2)cc1 [Example 8.176]
235 nM | CC(=O)N[C@@H]1CC[C@H](C(=O)N[C@@H](C)c2ccc(O[C@@H]3CCN(c4ncnc(OCC5CC5)c4F)C3)cc2)C1 [Example 10.1, (1S,3R)-3-acetamido-N—((S)-1-(4-((R)-1-(6-(cyclopropylmethoxy)-5-fluoropyrimidin-4-yl)pyrrolidin-3-yloxy)phenyl)ethyl)cyclopentanecarboxamide]
1380 nM | CC(=O)N[C@@H](C)c1ccc(O[C@@H]2CCN(c3nc(N4CCc5nocc5C4)ncc3Cl)C2)cc1 [Example 8.175]
908 nM | COc1c(OCC2CC2)ncnc1N1CC[C@@H](Oc2ccc([C@H](C)NC(=O)c3coc(NC(C)=O)n3)cc2)C1 [Example 2.33]
33 nM | CC(=O)N[C@@H](C)c1ccc(O[C@@H]2CCN(c3nc(N(C)CC4CC4)ncc3F)C2)cc1 [Example 8.9]
334 nM | CC(=O)N[C@@H](C)c1ccc(O[C@@H]2CCN(c3ccnc(N(C)C[C@@H]4CCCO4)n3)C2)cc1 [Example 8.203]
654 nM | CC(=O)N[C@@H](C)c1ccc(O[C@@H]2CCN(c3ccnc(C(C)C)n3)C2)cc1 [Example 6.9]
1030 nM | CC(=O)N[C@@H](C)c1ccc(O[C@@H]2CCN(c3ccnc(NC4CCCC4)n3)C2)cc1 [Example 8.4]
79 nM | CCN(CC)c1ncnc(N2CC[C@@H](Oc3ccc([C@H](C)NC(C)=O)cc3)C2)c1F [Example 8.95]
110 nM | CC(=O)N[C@@H](C)c1ccc(O[C@@H]2CCN(c3ncc(OCC4CCC4)cn3)C2)cc1 [Example 6.1, N—((S)-1-(4-((R)-1-(5-(cyclobutylmethoxy)pyrimidin-2-yl)pyrrolidin-3-yloxy)phenyl)ethyl)acetamide]
63 nM | CC(=O)N[C@@H](C)c1ccc(O[C@@H]2CCN(c3ncnc(OCC4CC4(F)F)c3F)C2)cc1 (stereo partly drawn) [Example 7.34]
157 nM | CC(=O)N[C@@H](C)c1ccc(O[C@@H]2CCN(c3nc(N4CCC[C@@H]4C)ncc3F)C2)cc1 [Example 8.282]
35 nM | CC(=O)N[C@@H](C)c1ccc(O[C@@H]2CCN(c3ncnc(OCC4CC4)c3F)C2)cc1 [Example 7.1, N—((S)-1-(4-((R)-1-(6-(cyclopropylmethoxy)-5-fluoropyrimidin-4-yl)pyrrolidin-3-yloxy)phenyl)ethyl)acetamide]
1070 nM | CC(=O)N[C@@H](C)c1ccc(O[C@@H]2CCN(c3nc(N(C)CCC(C)(C)O)ncc3F)C2)cc1 [Example 8.32]
170 nM | CC(=O)N[C@@H](C)c1ccc(O[C@@H]2CCN(c3ccnc(N(C)C4CCCC4)n3)C2)cc1 [Example 8.20]
594 nM | CC(=O)N[C@@H](C)c1ccc(O[C@@H]2CCN(c3nc(N4CC[C@H](F)C4)ncc3Cl)C2)cc1 [Example 8.241]
494 nM | CCOC(=O)N[C@@H](C)c1ccc(OC2CCN(c3ccnc(N4CCOCC4)n3)C2)cc1 (stereo partly drawn) [Example 4.3]
90 nM | Cc1oncc1C(=O)N[C@@H](C)c1ccc(OC2CCN(c3ccnc(N(C)CC(F)F)n3)C2)cc1 (stereo partly drawn) [Example 2.12]

IC50 | SMILES
60 nM | CC(=O)N[C@@H](C)c1ccc(O[C@@H]2CCN(c3nc(N4CCCC4C)ncc3F)C2)cc1 (stereo partly drawn) [Example 8.254]
50 nM | CC(=O)N[C@@H](C)c1ccc(O[C@@H]2CCN(c3nc(N(C)C4CC4)ncc3F)C2)cc1 [Example 8.68]
130 nM | CC(=O)N[C@@H](C)c1ccc(O[C@@H]2CCN(c3ccnc(N4CCOC(C(F)(F)F)C4)n3)C2)cc1 (stereo partly drawn) [Example 8.88]
224 nM | CC(=O)N[C@@H](C)c1ccc(O[C@@H]2CCN(c3ncnc(N4CCC(C)(O)C4)c3Cl)C2)cc1 (stereo partly drawn) [Example 8.297]
679 nM | COC1CCN(c2ncc(Cl)c(N3CC[C@@H](Oc4ccc([C@H](C)NC(C)=O)cc4)C3)n2)CC1 [Example 8.153]
898 nM | CO[C@@H]1CCN(c2ncnc(N3CC[C@@H](Oc4ccc([C@H](C)NC(C)=O)cc4)C3)c2F)C1 [Example 8.234]
559 nM | CC(=O)N[C@@H](C)c1ccc(O[C@@H]2CCN(c3ccnc(N4CCCC4(C)C)n3)C2)cc1 [Example 8.243]
153 nM | CC(=O)N[C@@H](C)c1ccc(O[C@@H]2CCN(c3nc(N4CCC(C)(O)C4)ncc3F)C2)cc1 (stereo partly drawn) [Example 8.156]
485 nM | CC(=O)N[C@@H](C)c1ccc(O[C@@H]2CCN(c3ncnc(N4CCOCC4)c3Cl)C2)cc1 [Example 8.117]
698 nM | CCN(CCO)c1nccc(N2CC[C@@H](Oc3ccc([C@H](C)NC(C)=O)cc3)C2)n1 [Example 8.263]
150 nM | CC(=O)N[C@@H](C)c1ccc(O[C@@H]2CCN(c3nc(N4CC(F)(F)C(F)(F)C4)ncc3Cl)C2)cc1 [Example 8.222]
269 nM | CC(=O)N[C@@H](C)c1ccc(O[C@@H]2CCN(c3nc(N(C)C4CCOCC4)ncc3Cl)C2)cc1 [Example 8.221]
227 nM | C[C@H](NC(=O)N(C)C)c1ccc(OC2CCN(c3ccnc(N4CCOCC4)n3)C2)cc1 (stereo partly drawn) [Example 3.2]
39 nM | CC(=O)N[C@@H](C)c1ccc(O[C@@H]2CCN(c3ncnc(OC4CCC4)c3Cl)C2)cc1 [Example 7.41]
375 nM | CC(=O)N[C@@H](C)c1ccc(O[C@@H]2CCN(c3cc(OCC4CC4)ncn3)C2)cc1 [Example 7.3]
145 nM | CC(=O)N[C@@H](C)c1ccc(O[C@@H]2CCN(c3nc(N4CC(F)(F)C(F)(F)C4)ncc3F)C2)cc1 [Example 8.217]
580 nM | CC(=O)N[C@@H](C)c1ccc(O[C@@H]2CCN(c3ncnc(NCC4CCCCO4)c3Cl)C2)cc1 (stereo partly drawn) [Example 8.316]
150 nM | CC(=O)N[C@@H](C)c1ccc(O[C@@H]2CCN(c3nc(N(C)CC4CCOC4)ncc3F)C2)cc1 (stereo partly drawn) [Example 8.29]
585 nM | CCOc1ncc(F)c(N2CC[C@@H](Oc3ccc([C@H](C)NC(C)=O)cc3)C2)n1 [Example 7.12]
204 nM | COc1c(OCC2CC2)ncnc1N1CC[C@@H](Oc2ccc([C@H](C)NC(=O)C3(C)CC3)cc2)C1 [Example 2.29]
120 nM | CC(=O)N[C@@H](C)c1ccc(O[C@@H]2CCN(c3ncc(OC[C@H]4CC4(F)F)cn3)C2)cc1 [Example 6.26]
